# “Also recorded” adds a separate entry of the source. Numbered stars: 1 amine (or outer) side, 2 acyl side, 3 side chain; on linkers, the order of the positions; unused ones are H or OH. Bridge positions count the residues as written; N and C are the ends. Square brackets hold non-standard residues; d marks the D form. Peptide text beside a SMILES is read from it. * marks the point of attachment. pTerphenylCO(4''-OnC5H11) = CCCCCOc1ccc(-c2ccc(-c3ccc(C(=O)*)cc3)cc2)cc1; Orn(4R-OH,5R-OH) = O=C([C@H](C[C@@H](O)[C@@H](O)N[*:3])N[*:1])[*:2]; hTyr(3S-OH,4S-OH) = N[C@H](C(=O)O)[C@H](O)[C@@H](O)c1ccc(O)cc1; Pro(3S-OH,4S-Me) = C[C@H]1CN[C@H](C(=O)O)[C@H]1O; Hyp = O=C(O)[C@@H]1C[C@@H](O)CN1
# Assays:
# Candida parapsilosis = details: cited from earlier work
# [1] = cited from earlier work
# Candida albicans = details: cited from earlier work
# [2] = test system: Candida albicans 10231 biofilms; assay: Pre-formed biofilm treatment assay (microscopy, CFU, metabolic activity); type: cell-based; details: liposomes at 1.25 mg/mL or equivalent free drug; twenty-four hours
# Description: (a) A set of representative differential interference contrast microscopy images of Candida albicans 10231 biofilms after twenty-four hours of treatment with 1×, 5×, and 10× anidulafungin loaded liposomes or equivalent free drug. (b) A bar graph showing Candida albicans 10231 biofilm colony-forming units (CFU) twenty-four hours after treatment with 1×, 5×, and 10× anidulafungin loaded liposomes or equivalent free drug (**p<0.01, unpaired two-tailed t-test, n=4). (c) A bar graph showing relative metabolic activity of Candida albicans 10231 biofilm cells twenty-four hours after treatment with 1×, 5×, and 10× anidulafungin loaded liposomes or equivalent free drug (*p<0.05, **p<0.01, ***p<0.001, ****p<0.0001, one-way ANOVA with Tukey's post hoc analysis, n=4). […] of untreated cells are shown. Negative controls lacking fungi were included in each study.
# The inventors compared anidulafungin-loaded liposomes with AmBisome®, a commercially-available liposomal amphotericin B, for activity against Candida albicans 10231 biofilms. AmBisome® localizes to the fungal cell wall. See, Adler-Moore & Proffitt, Journal of Antimicrobial Chemotherapy, 49(1), 21-30 (2002) and Walker et al., mBio, 9(1), e02383-17 (2018). The anidulafungin-loaded liposomes performed as AmBisome®, reducing fungal burden by five-fold after only twenty-four hours. See, FIG. 4. […]
# human cells = details: compared to many other antifungals; cited from earlier work
smiles,measurement,setting,value
"CCCCCOc1ccc(-c2ccc(-c3ccc(C(=O)N[C@H]4C[C@@H](O)[C@@H](O)NC(=O)[C@@H]5[C@@H](O)[C@@H](C)CN5C(=O)[C@H]([C@@H](C)O)NC(=O)[C@H]([C@H](O)[C@@H](O)c5ccc(O)cc5)NC(=O)[C@@H]5C[C@@H](O)CN5C(=O)[C@H]([C@@H](C)O)NC4=O)cc3)cc2)cc1 [Anidulafungin, 1-[(4R,5R) 4,5-dihydroxy-N2-[[4″-(pentyloxy)[1,1′:4′,1″-terphenyl]-4-yl]carbonyl]-L-ornithine] echinocandin B] ({pTerphenylCO(4''-OnC5H11)}-[Orn(4R-OH,5R-OH)]T[Hyp][hTyr(3S-OH,4S-OH)]T[Pro(3S-OH,4S-Me)]; lactam 1-C)",minimum inhibitory concentration (MIC),Candida parapsilosis,4 µg/mL
same,solubility in ethanol,[1]; ethanol,slightly soluble
same,solubility in water,[1]; water,practically insoluble; also recorded: not freely soluble
same,minimum inhibitory concentration (MIC),Candida albicans,0.25 µg/mL
same,metabolic activity compared to untreated controls,[2],did not reduce metabolic activity
same,toxicity to human cells,human cells,reduced toxicity to human cells
